From patent US20100120700A1, “METHODS AND COMPOSITIONS FOR TREATING CERVICAL CANCER” (priority 2000, published 2010)
Values joined by “and” are separate entries in the source; they are usually repeats but may differ in a detail not shown here. Equal entries are not always repeated.

Experiments:
Assay in all cases: G assay PDZ-PL binding
PIST domain 1 = molecular target: T1, PIST domain 1 (Homo sapiens, UniProt Q9HD26); details: peptide 10 uM, protein 5
T1 construct: made in house; host or cells: E. coli (DH5alpha or BL-21)
Summary of the method: (§1)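 Plate ELISA: anti-GST antibody coat, BSA block, then GST/PDZ fusion (GST alone as negative control). Biotinylated PL peptide 20 uM (10 uM in G′ variant) added, 10 min 4 °C plus 20 min 25 °C; streptavidin-HRP, TMB, absorbance 450 nm.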

NSP #42.5 domain 1 = molecular target: T2, NSP #42.5 domain 1 (Homo sapiens, UniProt Q92743); details: peptide 10 uM, protein 5
T2 construct: made in house; host or cells: E. coli (DH5alpha or BL-21)
Summary of the method: as §1

[1] = molecular target: T3, HEMBA 1003117 #193.3 domain 1 (Homo sapiens, UniProt Q96JH8); details: peptide 10 uM, protein 5
T3 construct: made in house; host or cells: E. coli (DH5alpha, BL21 or JM109)
Summary of the method: as §1

MUPP1 domain 10 = molecular target: T4, MUPP1 domain 10 (Homo sapiens, UniProt O75970); details: peptide 10 uM, protein 5
T4 construct: made in house; host or cells: E. coli (DH5alpha or BL-21)
Summary of the method: as §1

[2] = molecular target: T5, HEMBA 1003117 #226.2 domain 1 (Homo sapiens, UniProt Q96JH8); details: peptide 10 uM, protein 5
T5 construct: made in house; host or cells: E. coli (DH5alpha, BL21 or JM109)
Summary of the method: as §1

KIAA0380 #25.8 domain 1 = molecular target: T6, KIAA0380 #25.8 domain 1 (Homo sapiens, UniProt O15085); details: peptide 10 uM, protein 5
T6 construct: made in house; host or cells: E. coli (DH5alpha, BL21 or JM109), vector pGEX-3X
Summary of the method: as §1

EBP50 #168.2 domain 2 = molecular target: T7, EBP50 #168.2 domain 2 (Homo sapiens, UniProt O14745); details: peptide 10 uM, protein 5
T7 construct: made in house; host or cells: E. coli (DH5alpha, BL21 or JM109)
Summary of the method: as §1

APXL1 domain 1 = molecular target: T8, APXL1 domain 1 (Homo sapiens, UniProt Q13796); details: peptide 10 uM, protein 5
T8 construct: made in house; host or cells: E. coli (DH5alpha, BL21 or JM109), vector pGEX-3X
Summary of the method: as §1

EBP50 #287.1 domain 2 = molecular target: T9, EBP50 #287.1 domain 2 (Homo sapiens, UniProt O14745); details: peptide 10 uM, protein 5
T9 construct: made in house; host or cells: E. coli (DH5alpha, BL21 or JM109)
Summary of the method: as §1

TIP 43 #264.1 domain 1 = molecular target: T10, TIP 43 #264.1 domain 1 (Homo sapiens, UniProt Q13884); details: vs GST only well, peptide 10 uM, protein 5
T10 construct: made in house; host or cells: E. coli (DH5alpha, BL21 or JM109)
Summary of the method: as §1

KIAA0380 #25.6 domain 1 = molecular target: T11, KIAA0380 #25.6 domain 1 (Homo sapiens, UniProt O15085); details: vs GST only well, peptide 10 uM, protein 5
T11 construct: made in house; host or cells: E. coli (DH5alpha, BL21 or JM109), vector pGEX-3X
Summary of the method: as §1

GTPase domain 1 = molecular target: T12, GTPase domain 1 (Homo sapiens, UniProt Q96FS4); details: peptide 10 uM, protein 5
T12 construct: made in house; host or cells: E. coli (DH5alpha, BL21 or JM109)
Summary of the method: as §1

Magi2 domain 1 = molecular target: T13, Magi2 domain 1 (Homo sapiens, UniProt Q86UL8); details: vs GST only well, peptide 10 uM, protein 5
T13 construct: made in house; host or cells: E. coli (DH5alpha, BL21 or JM109)
Summary of the method: as §1

FLJ12615 domain 1 = molecular target: T14, FLJ12615 domain 1 (Homo sapiens, UniProt Q8N3R9); details: peptide 10 uM, protein 5
T14 construct: made in house; host or cells: E. coli (DH5alpha, BL21 or JM109)
Summary of the method: as §1

T8 sequence (Q13796 with tags, fused parts or gaps): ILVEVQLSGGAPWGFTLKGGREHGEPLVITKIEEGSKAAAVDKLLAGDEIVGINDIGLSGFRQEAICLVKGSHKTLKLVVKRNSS
T5 sequence (Q96JH8 969-1068): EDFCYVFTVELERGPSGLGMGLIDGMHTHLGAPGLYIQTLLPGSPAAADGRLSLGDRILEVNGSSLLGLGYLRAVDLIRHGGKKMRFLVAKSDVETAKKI
T4 sequence (O75970 with tags, fused parts or gaps): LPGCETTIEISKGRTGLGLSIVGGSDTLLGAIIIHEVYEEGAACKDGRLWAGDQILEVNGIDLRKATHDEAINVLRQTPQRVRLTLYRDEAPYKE
T14 sequence (Q8N3R9 247-343): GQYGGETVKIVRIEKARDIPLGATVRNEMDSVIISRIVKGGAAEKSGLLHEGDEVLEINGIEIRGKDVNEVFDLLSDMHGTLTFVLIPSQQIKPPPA
T11 sequence (O15085 45-123): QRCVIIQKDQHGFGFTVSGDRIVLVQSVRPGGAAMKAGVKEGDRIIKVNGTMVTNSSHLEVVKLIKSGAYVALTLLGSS
T6 sequence (O15085 45-123): as above
T12 sequence (Q96FS4 680-767): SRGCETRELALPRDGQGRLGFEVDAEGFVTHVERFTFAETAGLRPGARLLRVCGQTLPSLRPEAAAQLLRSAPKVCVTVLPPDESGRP
T7 sequence (O14745 with tags, fused parts or gaps): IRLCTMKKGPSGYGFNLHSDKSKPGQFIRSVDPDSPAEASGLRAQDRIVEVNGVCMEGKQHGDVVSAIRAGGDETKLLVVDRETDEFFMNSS
T9 sequence (O14745 with tags, fused parts or gaps): as above
T13 sequence (Q86UL8 408-511): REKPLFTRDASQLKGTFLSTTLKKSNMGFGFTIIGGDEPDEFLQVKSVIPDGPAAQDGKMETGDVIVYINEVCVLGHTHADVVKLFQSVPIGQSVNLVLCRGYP
T2 sequence (Q92743 359-473): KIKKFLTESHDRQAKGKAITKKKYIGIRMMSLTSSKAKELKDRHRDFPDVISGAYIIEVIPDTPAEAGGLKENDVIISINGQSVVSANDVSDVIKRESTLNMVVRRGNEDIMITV
T10 sequence (Q13884 106-201): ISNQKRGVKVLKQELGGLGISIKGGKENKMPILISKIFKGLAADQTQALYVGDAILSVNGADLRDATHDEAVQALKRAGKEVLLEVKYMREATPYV
T3 sequence (Q96JH8 969-1068): as the sequence (Q96JH8 969-1068) above

Substance: 20 mer peptide corresponding to the C-terminus of HPV16 E6 (PDZ ligand), biotinylated in binding assays; ends SSRTRRETQL (SEQ ID NO: 13) [HPV E6 #16]
- Ave OD (PIST domain 1; A450 nm): 0.3855
- OD S/N (PIST domain 1; vs GST only well): 1.96
- Ave OD (NSP #42.5 domain 1; A450 nm): 0.4165
- OD S/N (NSP #42.5 domain 1; vs GST only well): 1.95
- Ave OD ([1]; A450 nm): 0.517
- OD S/N ([1]; vs GST only well): 2.20
- Ave OD (MUPP1 domain 10; A450 nm): 0.3925 and 0.3915
- OD S/N (MUPP1 domain 10; vs GST only well): 2.03 and 1.96
- Ave OD ([2]; A450 nm): 0.36 and 0.477
- OD S/N ([2]; vs GST only well): 1.66 and 2.27
- Ave OD (KIAA0380 #25.8 domain 1; A450 nm): 0.603
- OD S/N (KIAA0380 #25.8 domain 1; vs GST only well): 3.58
- Ave OD (EBP50 #168.2 domain 2; A450 nm): 0.3455
- OD S/N (EBP50 #168.2 domain 2; vs GST only well): 1.99
- Ave OD (APXL1 domain 1; A450 nm): 0.4605 and 0.708
- OD S/N (APXL1 domain 1; vs GST only well): 3.14 and 2.96
- Ave OD (EBP50 #287.1 domain 2; A450 nm): 0.499
- OD S/N (EBP50 #287.1 domain 2; vs GST only well): 2.57
- OD S/N (TIP 43 #264.1 domain 1): 8.50 and 8.76
- OD S/N (KIAA0380 #25.6 domain 1): 1.95 and 3.06
- Ave OD (GTPase domain 1; A450 nm): 0.3505
- OD S/N (GTPase domain 1; vs GST only well): 1.12
- OD S/N (Magi2 domain 1): 11.59 and 7.23
- Ave OD (FLJ12615 domain 1; A450 nm): 0.4605
- OD S/N (FLJ12615 domain 1; vs GST only well): 2.24
